# In patent US4150023A, “Hydrosoluble rifamycins and process for their preparation” (Intreprinderea de Antibiotice Iasi, priority 1977, dated 1979):
# Where a name gives a salt, the structure may show the parent alone.
# System: not listed separately
# Experiment: physchem
# Assay type: physicochemical
# Conditions: not given
# Description: When the work is carried out as in above mentioned examples, using 2 mol of sodium ethylhexanoate versus 1 mol of rifamycin derivative, the soluble forms of other derivatives, presented in Table 1, are obtained using the specific volumes of solvent, and resulting in the products characterized by the main proprieties tabulated.
row,Compound,Solubility soluble form
1,"CO[C@H]1/C=C/O[C@@]2(C)Oc3c(C)c(O)c4c(O)c(c(C=NO)c(O)c4c3C2=O)NC(=O)/C(C)=C\C=C\[C@H](C)[C@H](O)[C@@H](C)[C@@H](O)[C@@H](C)[C@H](OC(C)=O)[C@@H]1C [Example 7, 3-formylrifamycin SV oxime]",over 100 mg/ml
2,"CO[C@H]1/C=C/O[C@@]2(C)Oc3c(C)c(O)c4c(O)c(c(C=NO)c(O)c4c3C2=O)NC(=O)/C(C)=C\C=C\[C@H](C)[C@H](O)[C@@H](C)[C@@H](O)[C@@H](C)[C@H](OC(C)=O)[C@@H]1C [Example 8, 3-formylrifamycin SV oxime (K salt)]",25000 µg/mL

# Same assay, conditions: Solubility as such
row,Compound,solubility
1,"CO[C@H]1/C=C/O[C@@]2(C)Oc3c(C)c(O)c4c(O)c(c(C=NNc5ccc(-c6ccc(C)cc6)nn5)c(O)c4c3C2=O)NC(=O)/C(C)=C\C=C\[C@H](C)[C@H](O)[C@@H](C)[C@@H](O)[C@@H](C)[C@H](OC(C)=O)[C@@H]1C [3-[3'-(p-tolyl)-pyridazinyl-6'-hydrazonomethyl]-rifamycin SV, reference compound]",270 µg/mL
2,"CO[C@H]1/C=C/O[C@@]2(C)Oc3c(C)c(O)c4c(O)c(c(C=NNc5ccc(-c6ccc(C)c(C)c6)nn5)c(O)c4c3C2=O)NC(=O)/C(C)=C\C=C\[C@H](C)[C@H](O)[C@@H](C)[C@@H](O)[C@@H](C)[C@H](OC(C)=O)[C@@H]1C [3-[3'-(3"",4""-dimethylphenyl)-pyridazinyl-6'-hydrazonomethyl]-rifamycin SV, reference compound]",< 100 µg/mL
3,"CCON=Cc1c2c(O)c3c(O)c(C)c4c(c3c1O)C(=O)[C@@](C)(O/C=C/[C@H](OC)[C@@H](C)[C@@H](OC(C)=O)[C@H](C)[C@H](O)[C@H](C)[C@@H](O)[C@@H](C)/C=C/C=C(/C)C(=O)N2)O4 [3-(ethyloximinomethyl)rifamycin SV, reference compound]",120 µg/mL
4,"CO[C@H]1/C=C/O[C@@]2(C)Oc3c(C)c(O)c4c(O)c(c(C=NOCCBr)c(O)c4c3C2=O)NC(=O)/C(C)=C\C=C\[C@H](C)[C@H](O)[C@@H](C)[C@@H](O)[C@@H](C)[C@H](OC(C)=O)[C@@H]1C [3-(2-bromethyloximinomethyl)-rifamycin SV, reference compound]",2950 µg/mL
5,"CO[C@H]1/C=C/O[C@@]2(C)Oc3c(C)c(O)c4c(O)c(c(C=NO)c(O)c4c3C2=O)NC(=O)/C(C)=C\C=C\[C@H](C)[C@H](O)[C@@H](C)[C@@H](O)[C@@H](C)[C@H](OC(C)=O)[C@@H]1C [3-formylrifamycin SV oxime, reference compound]",5500 µg/mL

# Results, then the molecule that gave them:
row,solubility,Compound
1,4800 µg/mL,"CO[C@H]1/C=C/O[C@@]2(C)Oc3c(C)c(O)c4c(O)c(c(C=NNC(=O)Cc5ccccc5)c(O)c4c3C2=O)NC(=O)/C(C)=C\C=C\[C@H](C)[C@H](O)[C@@H](C)[C@@H](O)[C@@H](C)[C@H](OC(C)=O)[C@@H]1C [3-(phenylacetylhydrazonomethyl)-rifamycin SV, reference compound]"
2,2750 µg/mL,"CO[C@H]1/C=C/O[C@@]2(C)Oc3c(C)c(O)c4c(O)c(c(C=NNC(=O)COc5ccccc5)c(O)c4c3C2=O)NC(=O)/C(C)=C\C=C\[C@H](C)[C@H](O)[C@@H](C)[C@@H](O)[C@@H](C)[C@H](OC(C)=O)[C@@H]1C [3-phenoxyacetylhydrazonomethyl)-rifamysin SV, reference compound]"
3,920 µg/mL,"CO[C@H]1/C=C/O[C@@]2(C)Oc3c(C)c(O)c4c(O)c(c(C=NNC(=O)c5ccncc5)c(O)c4c3C2=O)NC(=O)/C(C)=C\C=C\[C@H](C)[C@H](O)[C@@H](C)[C@@H](O)[C@@H](C)[C@H](OC(C)=O)[C@@H]1C [3-(isonicotinoylhydrazonomethyl)-rifamycin SV, reference compound]"

# Same assay, conditions: Solubility soluble form
row,Compound,solubility
1,"CCON=Cc1c2c(O)c3c(O)c(C)c4c(c3c1O)C(=O)[C@@](C)(O/C=C/[C@H](OC)[C@@H](C)[C@@H](OC(C)=O)[C@H](C)[C@H](O)[C@H](C)[C@@H](O)[C@@H](C)/C=C/C=C(/C)C(=O)N2)O4 [Example 9, 3-(ethyloximinomethyl)rifamycin SV]",> 100000 µg/mL
2,"CO[C@H]1/C=C/O[C@@]2(C)Oc3c(C)c(O)c4c(O)c(c(C=NOCCBr)c(O)c4c3C2=O)NC(=O)/C(C)=C\C=C\[C@H](C)[C@H](O)[C@@H](C)[C@@H](O)[C@@H](C)[C@H](OC(C)=O)[C@@H]1C [Example 10, 3-(2-bromethyloximinomethyl)-rifamycin SV]",> 100000 µg/mL
3,"CO[C@H]1/C=C/O[C@@]2(C)Oc3c(C)c(O)c4c(O)c(c(C=NNc5ccc(-c6ccc(C)c(C)c6)nn5)c(O)c4c3C2=O)NC(=O)/C(C)=C\C=C\[C@H](C)[C@H](O)[C@@H](C)[C@@H](O)[C@@H](C)[C@H](OC(C)=O)[C@@H]1C [Example 12, 3-[3'-(3"",4""-dimethylphenyl)-pyridazinyl-6'-hydrazonomethyl]-rifamycin SV]",540 µg/mL
4,"CO[C@H]1/C=C/O[C@@]2(C)Oc3c(C)c(O)c4c(O)c(c(C=NNc5ccc(-c6ccc(C)cc6)nn5)c(O)c4c3C2=O)NC(=O)/C(C)=C\C=C\[C@H](C)[C@H](O)[C@@H](C)[C@@H](O)[C@@H](C)[C@H](OC(C)=O)[C@@H]1C [Example 11, 3-[3'-(p-tolyl)-pyridazinyl-6'-hydrazonomethyl]-rifamycin SV]",540 µg/mL

# The next lines start with the values.
row,solubility,Compound
1,168000 µg/mL,"CO[C@H]1/C=C/O[C@@]2(C)Oc3c(C)c(O)c4c(O)c(c(C=NNC(=O)c5ccncc5)c(O)c4c3C2=O)NC(=O)/C(C)=C\C=C\[C@H](C)[C@H](O)[C@@H](C)[C@@H](O)[C@@H](C)[C@H](OC(C)=O)[C@@H]1C [Example 13, 3-(isonicotinoylhydrazonomethyl)-rifamycin SV]"
2,71000 µg/mL,"CO[C@H]1/C=C/O[C@@]2(C)Oc3c(C)c(O)c4c(O)c(c(C=NNC(=O)Cc5ccccc5)c(O)c4c3C2=O)NC(=O)/C(C)=C\C=C\[C@H](C)[C@H](O)[C@@H](C)[C@@H](O)[C@@H](C)[C@H](OC(C)=O)[C@@H]1C [Example 14, 3-(phenylacetylhydrazonomethyl)-rifamycin SV]"
3,128000 µg/mL,CO[C@H]1/C=C/O[C@@]2(C)Oc3c(C)c(O)c4c(O)c(c(C=NNC(=O)COc5ccccc5)c(O)c4c3C2=O)NC(=O)/C(C)=C\C=C\[C@H](C)[C@H](O)[C@@H](C)[C@@H](O)[C@@H](C)[C@H](OC(C)=O)[C@@H]1C [Example 15]

# System: ill subjects treated with rifampicin
# Experiment: not given
# Conditions: cited from earlier work
row,Compound,unsuccessful therapeutic treatments caused by hepatobiliar alterations
1,CO[C@H]1/C=C/O[C@@]2(C)Oc3c(C)c(O)c4c(O)c(c(/C=N/N5CCN(C)CC5)c(O)c4c3C2=O)NC(=O)/C(C)=C\C=C\[C@H](C)[C@H](O)[C@@H](C)[C@@H](O)[C@@H](C)[C@H](OC(C)=O)[C@@H]1C [rifampicin],over 10%
